Source: patent publication EP0452101B1, “Spiro bridged and unbridged heterocyclic compounds” (ISRAEL INSTITUTE FOR BIOLOGICAL RESEARCH, priority 1990, dated 1991)
Read-outs that look alike come from different tables or passages of the source.

How the values were obtained:
m1 receptors = target: T1, m1 receptors (Rattus norvegicus, UniProt P08482); experiment: PI hydrolysis in CHO cells transfected with m1 receptors; type: cell-based; settings: CHO m1
T1 construct: expressed in transfected cells; host or cells: CHO cells
T1 sequence (P08482 1-460): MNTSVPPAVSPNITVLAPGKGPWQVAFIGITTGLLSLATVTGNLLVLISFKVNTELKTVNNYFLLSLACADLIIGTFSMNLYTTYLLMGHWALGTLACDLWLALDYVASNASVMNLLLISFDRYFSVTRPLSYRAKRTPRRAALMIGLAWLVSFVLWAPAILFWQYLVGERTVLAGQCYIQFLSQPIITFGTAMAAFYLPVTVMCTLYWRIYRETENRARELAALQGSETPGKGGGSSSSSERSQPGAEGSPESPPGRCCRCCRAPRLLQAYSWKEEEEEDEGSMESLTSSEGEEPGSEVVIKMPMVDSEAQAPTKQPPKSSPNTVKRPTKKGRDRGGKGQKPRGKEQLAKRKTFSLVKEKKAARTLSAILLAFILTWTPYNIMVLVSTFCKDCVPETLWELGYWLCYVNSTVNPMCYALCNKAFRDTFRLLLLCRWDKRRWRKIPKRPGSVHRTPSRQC

M2 muscarinic receptors = target: T2, M2 muscarinic receptors (Rattus norvegicus, UniProt P10980); experiment: Displacement of 3H-QNB from rat cerebellum, 50 mM phosphate buffer; type: binding; settings: for Ki / % H / % H2 / %L / % L2: cerebellum; for RATIOS d:c: KL2 : KH2 cerebellum (3H-QNB)
T2 construct: displacing from rat brain homogenates, cerebellum or frontal cortex; from tissue; host or cells: rat cerebellum homogenates
T2 sequence (P10980 1-466): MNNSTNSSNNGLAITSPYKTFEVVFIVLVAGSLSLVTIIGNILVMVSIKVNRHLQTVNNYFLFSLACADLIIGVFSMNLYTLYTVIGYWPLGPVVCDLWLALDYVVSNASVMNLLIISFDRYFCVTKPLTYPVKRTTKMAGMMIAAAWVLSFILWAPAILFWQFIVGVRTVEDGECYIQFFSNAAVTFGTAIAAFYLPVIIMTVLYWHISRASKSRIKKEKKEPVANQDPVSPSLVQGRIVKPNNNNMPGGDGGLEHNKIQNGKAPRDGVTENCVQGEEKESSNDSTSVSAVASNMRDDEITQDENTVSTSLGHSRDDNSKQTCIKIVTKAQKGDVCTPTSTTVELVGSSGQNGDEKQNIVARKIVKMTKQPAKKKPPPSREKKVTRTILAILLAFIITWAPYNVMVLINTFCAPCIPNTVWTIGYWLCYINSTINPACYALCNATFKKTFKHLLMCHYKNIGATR

M1 muscarinic receptor [1] = target: T3, M1 muscarinic receptor (Rattus norvegicus, UniProt P08482); experiment: Displacement of 3H-QNB from rat cerebral cortex, 50 mM phosphate buffer; type: binding; settings: for RATIOS c:a: KH2 cerebellum : KH1 cortex (3H-QNB); for % H1 / % L1: cortex, Table 5; for RATIOS b:a: KL1 : KH1 cortex (3H-QNB); for RATIOS d:b: KL2 cerebellum : KL1 cortex (3H-QNB)
T3 sequence (P08482 1-460): T1 sequence (P08482 1-460)

muscarinic receptors = experiment: (-)3H-QNB binding to rat cerebral cortex homogenates with and without Cu++ treatment
[2] = system: rat cerebral cortex synaptosomes; experiment: Synaptosomal 3H-ACh release, basal and K+-evoked; settings: 0.1 mM
Excerpt: The effects of AF150 (and for comparison purposes, AF125, MeN-A-343 and oxotremorine) on basal- and K^+-evoked release of ^3H-ACh were studied on synaptosomes prepared from rat cerebral cortex using the methods described in detail by Pittel et al (J. Neurochem., 55: 665-672, 1990). […] On the other hand, the action of AF150 on presynaptic muscarinic receptors, causing an increase in K^+-evoked ACh release, can be considered either as an M2 antagonistic or an M1 agonistic effect. […] The existence of muscarinic autoreceptors that increase ACh release was manifested also in the PNS in smooth muscle preparation (Kilbinger and Nafziger, Naunyn Schmiedebergs Arch. Pharmacol. 328: 304-309, 1985).

M1 muscarinic receptor [3] = target: T3, M1 muscarinic receptor; experiment: Displacement of 3H-PZ from rat cerebral cortex, 10 mM phosphate buffer; type: binding; design: from tissue; host or cells: rat cerebral cortex homogenates; settings: for RATIOS c:a: KH cerebellum (3H-QNB) : KH cortex (3H-PZ)
[4] = target: T4, m3 subtype (SK-N-SH cells) (Homo sapiens, UniProt P20309); experiment: PI hydrolysis in SK-N-SH neuroblastoma cells; type: cell-based
T4 construct: endogenous in cells; host or cells: SK-N-SH human neuroblastoma cells
T4 sequence (P20309 whole entry): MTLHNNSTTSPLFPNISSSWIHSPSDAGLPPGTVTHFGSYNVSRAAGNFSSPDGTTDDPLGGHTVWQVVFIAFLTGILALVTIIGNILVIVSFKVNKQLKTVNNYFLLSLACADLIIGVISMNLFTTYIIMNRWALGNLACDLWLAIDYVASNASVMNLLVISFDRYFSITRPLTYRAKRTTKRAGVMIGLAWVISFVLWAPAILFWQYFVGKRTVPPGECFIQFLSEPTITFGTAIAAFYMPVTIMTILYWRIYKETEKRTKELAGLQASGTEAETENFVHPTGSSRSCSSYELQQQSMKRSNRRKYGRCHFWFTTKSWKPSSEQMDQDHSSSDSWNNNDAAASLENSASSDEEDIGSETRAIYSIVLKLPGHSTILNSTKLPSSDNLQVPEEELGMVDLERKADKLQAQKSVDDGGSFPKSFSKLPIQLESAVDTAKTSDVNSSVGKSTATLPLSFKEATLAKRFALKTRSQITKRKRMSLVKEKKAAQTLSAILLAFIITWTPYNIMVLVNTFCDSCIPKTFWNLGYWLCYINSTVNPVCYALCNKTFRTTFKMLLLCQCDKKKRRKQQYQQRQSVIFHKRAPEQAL
Method: (§1) The new compounds AF150, AF151, AF150(S) and AF125 were assayed for their ability to stimulate PI in CHO cells transfected with m1 and m3 receptors, respectively (Buck and Fraser, loc cit), and in cultured human neuroblastoma cells, line SK-N-SH, which express mainly the m3 subtype, but not the m1 subtype (Pinkas-Kramarski et al, Neurosci. Lett. 188: 335-340, 1990; Luthin et al Mol. Pharmacol. 34: 327-333, 1988). These compounds were also assayed on cultured PC12 cells which express mainly m4 subtype receptors and are coupled to inhibition of AC activity (Pinkas-Kramarski et al, loc cit).
(§2) Stimulation of PI breakdown was assayed using the method described by Stein et al (EMBO J. 7: 3031-3035, 1988), and modulation of AC activity was assayed by the method of Stein et al, loc cit and Pinkas-Kramarski et al (FEBS Lett., 239: 174-178, 1988). […]

M1 muscarinic receptor [5] = target: T3, M1 muscarinic receptor; experiment: Displacement of 3H-PZ from cortical binding sites, Tris/Mn buffer, with and without GppNHp; design: from tissue; host or cells: rat cerebral cortex homogenates
Excerpt: The binding of agonists to M1 muscarinic receptors and the effect of guanylyl imidophosphate (GppNHp). Agonists are known to be coupled with guanine nucleotide binding proteins (G proteins).
Non-hydrolyzable guanine nucleotides such as GppNHp dissociate the G protein from the receptor and decrease the affinity of the receptor for agonists but not for antagonists. […] Molec.
Under these conditions agonists of high efficacy ("full agonists") bind directly to the M1 receptor subtype with two affinities. […] The ratio of low and high affinities (KL/KH) of the M1 receptor may predict the relative efficacies of agonists to activate putative M1 receptor-mediated second messenger systems.
KH, KL, %H and %L are the apparent inhibition constants of the tested ligands for the high and low affinity sites, respectively. G is GppNHp (guanylyl imidodiphosphate), and was used in 0.1 mM concentration. Displacement of ^3H-PZ from cortical binding sites was performed in Tris/Mn buffer (pH 7.4) for one hour at 25°C; the buffer included 1 mM EDTA and 2mM Mn^++ ions. […] The binding data were analyzed using a GraphPAD program and were fitted to one or two components. Values are means from 1-3 experiments carried out in triplicates.

[6] = target: T5, m4 subtype receptors (PC12 cells) (Rattus norvegicus, UniProt P08485); experiment: Inhibition of adenylate cyclase activity in PC12 cells; type: cell-based; settings: PC12 m4; tested at 1mM
T5 construct: endogenous in cells; host or cells: PC12 cells
T5 sequence (P08485 1-478): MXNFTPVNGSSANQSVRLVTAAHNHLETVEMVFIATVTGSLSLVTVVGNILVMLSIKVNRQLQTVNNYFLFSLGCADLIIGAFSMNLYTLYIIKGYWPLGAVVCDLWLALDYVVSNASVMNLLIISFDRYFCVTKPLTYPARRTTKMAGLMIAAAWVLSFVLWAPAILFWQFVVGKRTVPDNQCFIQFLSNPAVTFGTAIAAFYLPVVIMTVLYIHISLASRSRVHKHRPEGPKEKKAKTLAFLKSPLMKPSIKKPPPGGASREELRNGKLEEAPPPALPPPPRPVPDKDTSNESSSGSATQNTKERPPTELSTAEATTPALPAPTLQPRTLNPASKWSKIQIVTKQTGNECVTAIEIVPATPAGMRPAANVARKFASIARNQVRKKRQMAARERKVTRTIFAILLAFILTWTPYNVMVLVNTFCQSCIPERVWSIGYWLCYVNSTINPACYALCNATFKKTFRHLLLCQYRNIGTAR
Method: as §1, §2

[7] = 3H-QNB-Binding KH2 (c), Table 5
[8] = with Cu++ pretreatment (100 µM, 30 minutes)
[9] = with Cu++ pretreatment (100 µM, 30 minutes), read-out: KL
[10] = without pretreatment, read-out: KH
[11] = without pretreatment, read-out: KL
[12] = 3H-QNB-Binding KL2 (d), Table 5

Row | Structure (SMILES) | Ki (M2 muscarinic receptors; [7]) [nM] | % H (M2 muscarinic receptors; Table 4) [%] | % H2 (M2 muscarinic receptors; Table 5) [%] | RATIOS c:a (M1 muscarinic receptor [1]) | % H1 (M1 muscarinic receptor [1]) [%] | %H (% of high affinity state) (muscarinic receptors; [8]) [%] | Ki (muscarinic receptors; [9]) [nM] | %H (% of high affinity state) (muscarinic receptors; without pretreatment) [%] | Ki (muscarinic receptors; [10]) [nM] | Ki (muscarinic receptors; [11]) [nM] | K+-evoked 3H-ACh release [2] [%] | % H (M1 muscarinic receptor [3]) [%] | Ki (M1 muscarinic receptor [3]; 3H-PZ-Binding KH (a)) [nM] | RATIOS c:a (M1 muscarinic receptor [3]) | Ki (M2 muscarinic receptors; 3H-QNB-Binding KH (c), Table 4) [nM] | Ki (M2 muscarinic receptors; [12]) [nM] | Ki (M2 muscarinic receptors; 3H-QNB-Binding KL (d), Table 4) [nM] | RATIOS d:c (M2 muscarinic receptors) | %L (M2 muscarinic receptors; Table 4) [%] | % L2 (M2 muscarinic receptors; Table 5) [%] | also measured
1 | CC1=NCC2(CCN(C)CC2)S1 [AF150(S), 2-Methyl-spiro(1,3-thiazoline-5,4')-1'-methylpiperidine] | – | – | – | – | – | – | – | – | – | – | – | – | – | – | – | – | – | – | – | – | PI, % of carbachol effect (m1 receptors): 17%; PI (phosphoinositides hydrolysis) (m1 receptors; tested at 1mM): +
2 | C[N+](C)(C)CC#CCOC(=O)Nc1cccc(Cl)c1 [McN-A-343] | 11000 | 100 | 100 | 1.9 | 100 | 30±7 | 5700 ± 200 | 13±5 | 340 ± 100 | 8500 ± 800 | 172 | 100 | 3800 | 6.4 | – | – | – | – | – | – | Ki (M2 muscarinic receptors; Table 4, read-out: 3H-QNB-Binding KH (c)): 24400 nM; Ki (muscarinic receptors; with Cu++ pretreatment (100 µM, 30 minutes), read-out: KH): 180 ± 90 nM; Basal 3H-ACh release [2]: 144%
3 | C[N+](C)(C)CC#CCN1CCCC1=O [Oxotremorine-M, reference compound] | 69 | 49 | 49 | 0.6 | 26 | – | – | – | – | – | – | 53 | 100 | 0.69 | 69 | 5200 | 5200 | 75 | 51 | 51 | RATIOS b:a (M1 muscarinic receptor [1]): 336; RATIOS d:b (M1 muscarinic receptor [1]): 0.14; % L1 (M1 muscarinic receptor [1]): 74%; accumulation of inositol-1-phosphate (IP1) stimulated over basal level [4]: 5.24 fold; % H (M1 muscarinic receptor [5]; +G (0.1 mM GppNHp)): 2.7%; %L (M1 muscarinic receptor [5]; +G (0.1 mM GppNHp)): 73%; % H (M1 muscarinic receptor [5]; -G): 53%; %L (M1 muscarinic receptor [5]; -G): 47%; Ki (M1 muscarinic receptor [5]; KH, +G (0.1 mM GppNHp)): 350 nM; Ki (M1 muscarinic receptor [5]; KH, -G (without GppNHp)): 110 nM; Ki (M1 muscarinic receptor [5]; KL, +G (0.1 mM GppNHp)): 4200 nM; Ki (M1 muscarinic receptor [5]; KL, -G): 6700 nM; KL-G / KH-G (M1 muscarinic receptor [5]; ratio of low and high affinities without GppNHp): 61; %L (M1 muscarinic receptor [3]): 47%; RATIOS b:a (M1 muscarinic receptor [3]): 67; Ki (M1 muscarinic receptor [3]; 3H-PZ-Binding KL (b)): 6700 nM; RATIOS d:b (M1 muscarinic receptor [3]; KL cerebellum (3H-QNB) : KL cortex (3H-PZ)): 0.78
4 | O=C1CCCN1CC#CCN1CCCC1 [Oxotremorine] | 14 | 35 | 35 | 0.9 | 13 | 51 | 7200 ± 1700 | 32 | 20 ± 5 | 13300 ± 1400 | 56 | – | – | – | 14 | 580 | 580 | 41 | 65 | 65 | RATIOS b:a (M1 muscarinic receptor [1]): 100; RATIOS d:b (M1 muscarinic receptor [1]): 0.36; % L1 (M1 muscarinic receptor [1]): 87%; %H (% of high affinity state) (muscarinic receptors; with Cu++ pretreatment (100 µM, 30 minutes), listed as 3): 51±7%; %H (% of high affinity state) (muscarinic receptors; without pretreatment, listed as 3): 32±3%
5 | C[N+](C)(C)CCOC(N)=O [Carbachol, reference compound] | – | – | – | – | – | – | – | – | – | – | – | – | – | – | – | – | – | – | – | – | AC (adenylate cyclase activity) [6]: +++
